According to PMC7619385 (ACS infectious diseases, 2025):
Read-outs that look alike come from different tables or passages of the source.

Key:
[1] = biological target: T1, LmxCLK1 (Leishmania mexicana, UniProt E9AMP2); assay: biochemical; type: binding
T1 sequence (E9AMP2 1-422): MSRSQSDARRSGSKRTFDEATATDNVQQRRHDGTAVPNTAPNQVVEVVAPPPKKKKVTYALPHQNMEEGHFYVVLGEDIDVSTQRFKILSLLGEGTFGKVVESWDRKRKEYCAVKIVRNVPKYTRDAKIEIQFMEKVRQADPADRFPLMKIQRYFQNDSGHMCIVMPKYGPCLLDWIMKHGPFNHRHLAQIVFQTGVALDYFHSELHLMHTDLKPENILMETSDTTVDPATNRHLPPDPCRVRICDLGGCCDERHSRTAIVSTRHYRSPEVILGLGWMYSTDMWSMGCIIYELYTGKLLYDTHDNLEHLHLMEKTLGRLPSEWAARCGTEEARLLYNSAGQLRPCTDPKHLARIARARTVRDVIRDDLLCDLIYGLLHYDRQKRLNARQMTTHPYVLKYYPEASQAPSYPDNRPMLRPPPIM

[2] = biological target: NLuc::LmxCLK1 (Leishmania mexicana, UniProt E9AMP2); assay: cell-based; type: cell-based; conditions: for Target occupancy Run 1 / Target occupancy Run 2 / Target occupancy Average: 10 µM compound, tracer SV366, promastigotes; for Target occupancy Average: mean of two experiments
Protocol: All compounds were tested at a fixed concentration of 10 µM to enable direct comparison of their target occupancy in live cells.
Serially diluted probes (5 µL) were added to 85 µL of cells in culture media or 85 µL of purified protein. Final well volumes were adjusted to 100 µL with sterile Opti-MEM™ I Reduced Serum Medium (Thermo-Scientific) – for wells containing cells; or Kinase Buffer - for wells containing purified protein. For tracer displacement assays, samples were prepared as above, but final volume was brought to 100 µL by addition of vehicle or serially-diluted test compounds. Final DMSO concentration in these assays was 1%. […] Light emissions at 460+10 nm (BRET donor) and at 610+20 nm (BRET acceptor) were sequentially recorded (integration time = 0.5 s, gain = 3600) using a luminometer (BMG LABTECH Clariostar or Biotek Synergy HT). BRET values are reported in milli-BRET (mBRET) units (mBU), obtained by dividing the acceptor luminescence by the donor luminescence and multiplying the result by a factor of 1,000. BRET values were converted to blank-corrected probe occupancies (%) according to equation [1]: (1) Probeoccupancy(%)=X−Z/Y−Z×100 where X = mBRET value in the presence of the test compound and the probe, Y = mBRET value in the presence of probe only, and Z = mBRET value in the absence of probe and test compound. […]

[3] = DSF, 10 µM compound, 2 µM LmxCLK1, Run 1
[4] = DSF, 10 µM compound, 2 µM LmxCLK1, Run 2
[5] = DSF, 10 µM compound, 2 µM LmxCLK1, mean of two runs
[6] = DSF, 10 µM compound, 2 µM LmxCLK1, Run 1, read-out: ΔTm Run 1
[7] = DSF, 10 µM compound, 2 µM LmxCLK1, Run 2, read-out: ΔTm Run 2
[8] = DSF, 10 µM compound, 2 µM LmxCLK1, mean of two runs, read-out: ΔTm Average
[9] = read-out: Target occupancy Average
[10] = read-out: Target occupancy Run 1
[11] = read-out: Target occupancy Run 2

| Compound | ΔTm Run 1 [1, 3] | ΔTm Run 2 [1, 4] | ΔTm Average [1, 5] | Target occupancy Run 1 [2] | Target occupancy Run 2 [2] | Target occupancy Average [2] | ΔTm at 10 µM [1, 6] | ΔTm at 10 µM [1, 7] | ΔTm at 10 µM [1, 8] | receptor occupancy at 10 µM [2, 9] | receptor occupancy at 10 µM [2, 10] | receptor occupancy at 10 µM [2, 11] | ΔTm Average [1] | ΔTm Run 1 [1] | ΔTm Run 2 [1] |
| --- | --- | --- | --- | --- | --- | --- | --- | --- | --- | --- | --- | --- | --- | --- | --- |
| CCN1/C(=C/C(C)=O)Sc2ccc(OC)cc21 [TG003] | 1.4 °C | 1.2 °C | 1.3 °C | 10.1% | -15.2% | -2.5% |  |  |  |  |  |  |  |  |  |
| COc1ccc(Cl)cc1NC(=O)Nc1cc(C)nc2ccccc12 [PQ 401] | 0.0 °C | -0.2 °C | -0.1 °C | -4.0% | 1.2% | -1.4% |  |  |  |  |  |  |  |  |  |
| N#CC1(c2ccc(NC(=O)c3cccnc3NCc3ccncc3)cc2)CCCC1 [Apatinib] |  |  |  |  |  |  | -0.2 °C | -0.4 °C | -0.3 °C | -8.5% | -9.2% | -7.8% |  |  |  |
| O=C(Nc1ccc(OC(F)(F)F)cc1)c1sccc1NCc1ccnc2ccccc12 [OSI-930] |  |  |  |  |  |  | 0.4 °C | 0 °C | 0.2 °C | 0.1% | -0.4% | 0.6% |  |  |  |
| CCS(=O)(=O)c1cccc(-c2cc(C(=O)NC3CCN(C)CC3)c(C)c3[nH]c4ncc(C)cc4c23)c1 [TAK-901] |  |  |  |  |  |  | 1.5 °C | 1.1 °C | 1.3 °C | -5.9% | -2.7% | -9.1% |  |  |  |
| c1cncc(CN2CCC(n3ncc4c(N5CCOCC5)nc(-c5ccc6[nH]ccc6c5)nc43)CC2)c1 [WAY-600] | 0.0 °C | -0.4 °C | -0.2 °C | 4.0% | -10.8% | -3.4% |  |  |  |  |  |  |  |  |  |
| Cl.O=S(=O)(c1cccc2cnccc12)N1CCCNCC1 [Fasudil (HA-1077) HCl] | 0.9 °C | 0.6 °C | 0.7 °C | 6.9% | -10.2% | -1.7% |  |  |  |  |  |  |  |  |  |
| C[C@H]1[C@H](C)CC[C@]2(C(=O)O)CC[C@]3(C)C(=CC[C@@H]4[C@@]5(C)C[C@@H](O)[C@H](O)[C@@](C)(CO)[C@@H]5CC[C@]43C)[C@H]12 [Asiatic Acid] |  |  |  |  |  |  | 0.2 °C | 0.1 °C | 0.2 °C | -4.4% | 8.6% | -17.4% |  |  |  |
| C=CS(=O)(=O)NC1CCN(C(=O)CNc2cc(I)c(Cl)cc2OC)CC1 [K-Ras(G12C) inhibitor 9] | 0.3 °C | -0.6 °C | -0.1 °C | -21.1% | -10.0% | -15.5% |  |  |  |  |  |  |  |  |  |
| CN(C)CCCn1cc(C2=C(c3c[nH]c4ccccc34)C(=O)NC2=O)c2ccccc21 [GF109203X] |  |  |  | -5.7% | -5.0% | -5.4% |  |  |  |  |  |  | 0.2 °C | 0.3 °C | 0.1 °C |
| O=C1NC(=O)C(=Cc2ccc(-c3ccc(F)cc3)o2)S1 [CAY10505] | 0.1 °C | -0.1 °C | 0.0 °C | -12.3% | 10.0% | -1.2% |  |  |  |  |  |  |  |  |  |
| COc1ccc(-c2cc3c(C)nc(N)nc3n([C@H]3CC[C@H](OCCO)CC3)c2=O)cn1 [PF-04691502] |  |  |  | -3.4% | -25.8% | -14.6% |  |  |  |  |  |  | 0.2 °C | 0.3 °C | 0.1 °C |
| CN1CC[C@H](c2c(O)cc(O)c3c(=O)cc(-c4ccccc4Cl)oc23)[C@H](O)C1.Cl [Flavopiridol HCl] | 0.1 °C | -0.1 °C | 0.0 °C | 1.6% | -3.3% | -0.8% |  |  |  |  |  |  |  |  |  |
| COC[C@H]1OC(=O)c2coc3c2[C@@]1(C)C1=C(C3=O)[C@@H]2CCC(=O)[C@@]2(C)C[C@H]1OC(C)=O [Wortmannin] |  |  |  |  |  |  | 0 °C | -0.3 °C | -0.2 °C | -3.6% | -2.4% | -4.8% |  |  |  |
| C[C@H](NC(=O)/C(C#N)=C/c1cccc(Br)n1)c1ccccc1 [WP1066] |  |  |  |  |  |  | 0.1 °C | 0 °C | 0 °C | -7.5% | 3.4% | -18.3% |  |  |  |
| COc1cc2ncnc(Oc3cccc(NC(=O)Nc4cc(C(C)(C)C(F)(F)F)on4)c3)c2cc1OC [CEP-32496] |  |  |  |  |  |  | -0.4 °C | -0.2 °C | -0.3 °C | -3.7% | -2.2% | -5.2% |  |  |  |
| Cc1ccc(NC(=O)c2cccc(N(C)C)c2)cc1NC(=O)c1ccc(O)cc1 [ZM 336372] | -0.1 °C | -0.5 °C | -0.3 °C | -4.5% | -6.5% | -5.5% |  |  |  |  |  |  |  |  |  |
| AZD4547 | -0.1 °C | -0.3 °C | -0.2 °C | -24.6% | 21.5% | -1.5% |  |  |  |  |  |  |  |  |  |
| Cc1nc(Nc2ncc(C(=O)Nc3c(C)cccc3Cl)s2)cc(N2CCN(CCO)CC2)n1 [Dasatinib] |  |  |  |  |  |  | -0.1 °C | -0.2 °C | -0.1 °C | -14.6% | 1.5% | -30.7% |  |  |  |
| Cc1cnc(NC(=O)Nc2cc(Br)c(C)cc2OC[C@@H]2CNCCO2)cn1 [LY2603618] |  |  |  |  |  |  | 0 °C | -0.4 °C | -0.2 °C | -11.8% | 7% | -30.5% |  |  |  |
| CCOc1cc2ncc(C#N)c(Nc3ccc(F)c(Cl)c3)c2cc1NC(=O)/C=C/CN(C)C [Pelitinib (EKB-569), Pelitinib] |  |  |  |  |  | negligible target engagement | 9.1 °C | 12.5 °C | 10.8 ± 1.7 °C |  |  |  |  |  |  |
